# In ChEMBL document CHEMBL1201862, “PubChem BioAssay data set” (2004):
# Activity calls are given as the source filed them.
# Tests used:
# [1] = target: Glucose-6-phosphate 1-dehydrogenase (Homo sapiens, UniProt P11413); assay: human G6PD enzyme inhibitors, dose response, selectivity assay for P. falciparum G6PD inhibitor project, biochemical, fluorescence (AID 504792); type: functional
# [2] = tested on: Escherichia coli; assay: microbe, parasite or virus in culture
# [3] = target: T1, Short transient receptor potential channel 4 (Mus musculus, UniProt Q9QUQ5); assay: mouse TRPC4 channel activators, dose response, cell-based, HEK293 TRPC4/mu-opioid, Fluo-4 calcium (AID 434937); type: functional
# T1 sequence (Q9QUQ5 whole entry): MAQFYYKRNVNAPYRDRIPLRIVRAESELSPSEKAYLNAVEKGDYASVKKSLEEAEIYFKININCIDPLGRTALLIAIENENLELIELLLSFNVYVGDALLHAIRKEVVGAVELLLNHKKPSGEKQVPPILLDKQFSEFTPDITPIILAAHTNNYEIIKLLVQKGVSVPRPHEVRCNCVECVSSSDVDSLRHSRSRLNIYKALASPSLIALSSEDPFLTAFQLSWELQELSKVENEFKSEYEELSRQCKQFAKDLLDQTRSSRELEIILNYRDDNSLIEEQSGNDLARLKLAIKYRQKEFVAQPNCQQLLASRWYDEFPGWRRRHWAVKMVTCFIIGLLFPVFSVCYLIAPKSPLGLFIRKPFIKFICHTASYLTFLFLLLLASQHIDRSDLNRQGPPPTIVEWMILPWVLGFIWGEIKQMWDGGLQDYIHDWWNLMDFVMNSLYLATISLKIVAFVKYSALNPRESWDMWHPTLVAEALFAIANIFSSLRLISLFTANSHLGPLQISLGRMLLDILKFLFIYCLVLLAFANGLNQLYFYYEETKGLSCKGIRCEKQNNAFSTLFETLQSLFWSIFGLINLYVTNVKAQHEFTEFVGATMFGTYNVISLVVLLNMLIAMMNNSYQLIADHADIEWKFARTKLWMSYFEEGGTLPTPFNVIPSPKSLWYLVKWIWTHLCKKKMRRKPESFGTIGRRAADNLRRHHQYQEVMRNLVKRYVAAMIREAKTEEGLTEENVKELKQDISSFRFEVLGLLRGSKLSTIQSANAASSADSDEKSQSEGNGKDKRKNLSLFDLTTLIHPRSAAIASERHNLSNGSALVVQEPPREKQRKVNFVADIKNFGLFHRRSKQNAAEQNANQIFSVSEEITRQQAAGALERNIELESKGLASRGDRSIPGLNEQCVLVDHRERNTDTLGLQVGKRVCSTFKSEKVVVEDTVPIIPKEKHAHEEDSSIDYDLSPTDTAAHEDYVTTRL
# [4] = tested on: Vero; assay: cells; type: functional, cell-based; details: Chlorocebus sabaeus
# [5] = tested on: Vero; assay: cells; type: functional; details: Chlorocebus sabaeus
# [6] = human group III sPLA2 inhibitors, dose response, biochemical, QFRET, IC50 (AID 743457);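 further: green fluorescence rise as the enzyme cleaves BODIPY PC-A2 in liposomes; potency for inhibition of the enzyme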
# [7] = tested on: Escherichia coli; assay: microbe, parasite or virus in culture; remark: listed apart in the source
# [8] = insulin promoter down-regulators in MIN6 cells, imaging, high-content screening, mouse beta cells (AID 1628); type: functional
# [9] = cytotoxicity in MIN6 insulinoma cells, dose response, cytotoxicity control, cell-based, mouse insulinoma (AID 2122); type: functional;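 further: confirmatory high-throughput counterscreen run to flag cytotoxic compounds; mouse MIN-6 beta cells carrying an insulin promoter eGFP reporter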
# [10] = Luminescence Cell-Based Dose Retest to Confirm Inhibitors of Cancer Stem Cells. [Related pubchem assays (depositor defined):AID2717, AID2721]; type: functional; details: Homo sapiens
# [11] = cytotoxicity in HMLE control line with eGFP shRNA, dose response, counter-screen for HMLE_sh_ECad selective toxicity project, cell-based, HMLE_sh_eGFP, luminescence (AID 463074); type: functional, Homo sapiens;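 further: HMLE human mammary epithelial cells expressing control shRNA against eGFP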
# Glucose-6-phosphate 1-dehydrogenase, sequence (P11413 whole entry): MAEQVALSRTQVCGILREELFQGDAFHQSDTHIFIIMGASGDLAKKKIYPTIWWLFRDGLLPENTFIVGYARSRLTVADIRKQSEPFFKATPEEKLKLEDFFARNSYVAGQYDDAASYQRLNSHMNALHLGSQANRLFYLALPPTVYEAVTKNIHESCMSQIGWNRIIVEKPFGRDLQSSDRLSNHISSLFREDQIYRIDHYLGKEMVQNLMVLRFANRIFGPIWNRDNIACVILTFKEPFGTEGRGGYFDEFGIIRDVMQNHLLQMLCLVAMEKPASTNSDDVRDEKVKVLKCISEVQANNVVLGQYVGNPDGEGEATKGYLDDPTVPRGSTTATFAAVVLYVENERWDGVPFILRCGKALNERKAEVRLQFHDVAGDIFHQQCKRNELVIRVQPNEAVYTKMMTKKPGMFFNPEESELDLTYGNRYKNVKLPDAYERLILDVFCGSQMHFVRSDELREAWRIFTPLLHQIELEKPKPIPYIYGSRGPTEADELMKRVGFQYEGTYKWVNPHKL
structure (smiles),measurement,setting,value
C=CCOc1c(Cl)cc(CNc2ccc3[nH]c(O)nc3c2)cc1OC,IC50,[1],> 80 µM (inactive)
Cc1ccc(-c2[nH]nc3c2C(c2ccccc2)N(c2ccc(C(=O)O)cc2)C3=O)cc1 (configuration not stated),AC50,[2],35.3 µM (active)
COc1ccc(C(=O)NC(=S)NNC(=O)c2cccc(C)c2)cc1,EC50,[3],3.35 µM (active)
same,IC50,[4],23.7 µM (active)
same,CC50,[5],> 25 µM (active)
same,IC50,[6],75.7 µM (inactive)
C/C=C(/C)C(=O)Nc1cccc(C2=NOC3(C2)C[C@H](C(N)=O)N(C(=O)c2ccc(Cl)cc2)C3)c1 (some centres not stated),AC50,[7],48 µM (active)
COc1c(Cl)cc(Cl)cc1/C=C/C(=O)c1ccc(NC(=O)c2cccs2)cc1,IC50,[8],2.56 µM (active)
same,IC50,[9],1.35 µM (active)
same,AC50,[10],1.12 µM (active)
Cc1ccc(P(=S)(c2ccc(C)o2)N2CCOCC2)o1,AC50,[10],> 195 µM (inactive)
same,AC50,[11],78.2 µM (active)
